Measurements published in patent US9012459B2, “Monohydrate crystalline form of 3-(5-(4-(3-fluoropropyl)-piperazin-1-yl)benzimidazol-2-yl)-1-azaazulen-2-one, preparation, and pharmaceutical composition thereof” (Industrial Technology Research Institute, priority 2012, dated 2015).
Like-named read-outs stand apart in the source and are kept apart here.

Tests used:
[1] = hygroscopicity test (weight gain); assay type: physicochemical; conditions: for Weight gain (%): 1 day, temperature 22.5/21.8 ° C., relative humidity 70/71 %; for hygroscopicity: Hydroscopicity test
Protocol: The monohydrate form of Formula I (300 mg) was dissolved at room temperature in the mix solution of CH2Cl2 (50 mL) and methanol (50 mL). Na2SO4 (10 g) was then added into the solution to absorb water with stir for 2 hours.

[2] = stability examination by slurry test (XRPD); assay type: physicochemical; conditions: stirred at 25° C. for 3 days in ethyl acetate, heptanes or isopropanol
Protocol: 1. Formula I-EA: the monohydrate form of Formula I (57 mg) and Ethyl acetate (1 mL) was provided.
2. Formula I-Heptane: the monohydrate form of Formula I (51 mg) and Heptanes (1 mL) was provided: […]
3. Formula I-IPA: the monohydrate form of Formula I (53 mg) and 1 mL of Isopropanol (1 mL) was provided.
The solutions provided above were stirred at 25° C. for 3 days and then a centrifugation was performed to collect the solid with centrifuge in each. Each of the collected solids was dried and analyzed using XPRD. […] This is a pre-test for the subsequent formulation, which is aimed to confirm that the monohydrate form wouldn't change with the incorporation of solvents. Therefore, the solvents used herein may not be the same as those crystallized solvents used in the embodiments.

[3] = pharmacokinetics profile and bioavailability, PO dosing; assay type: in vivo; conditions: PO 30 mg/kg, male SD rat; monohydrate in capsule and in 0.5% methyl cellulose suspension, sample #4 in 0.5% methyl cellulose
Protocol: The pharmacokinetics profile and the bioavailability were tested by a PO (per os) dosing with 30 mg/kg of sample of Example 1 (monohydrate), good in capsule (Tropac, 9el) and in bottle (0.5% methyl cellulose suspension) for male SD rat; and also a PO dosing with 30 mg/kg of sample #4 (mixed crystalline form) in 0.5% methyl cellulose for male SD rat as a treatment control. With the result from the above testing, the preferable PO dosing for first in human model was determined.
Generally, the PK profile of the crystalline form with good crystallinity and stability would be worse than that of amorphous form and complex form.
The terms used in FIG. 10 were listed as follows, PO (per os) represents taken by mouth; Cmax (ng/mL) represents the peak plasma concentration of a drug after administration; Tmax (hr) represents the time to reach Cmax; T1/2 (hr) represents elimination half-life, which represents the time required for the concentration of the drug to reach half of its original value; and AUC (hr*ng/mL) [area under the curve] represents the integral of the concentration-time curve (after a single dose or in steady state), and the bioavailability could be deducted from AUC values.

[4] = solubility in different pH buffer solutions (HPLC); assay type: physicochemical; conditions: buffer solution, thermodynamic from solid, read-out: Concentration (solubility)
[5] = stability test (XRPD and HPLC over time); assay type: physicochemical; conditions: about 25-30° C. and 40%-45% RH; after preparation, one, two and four months
Protocol: An appropriate amount of samples were prepared according to the method of Example 1. A XPRD analysis and a HPLC analysis were performed, under the environment of about 25-30° C. and 40%-45% RH, after the preparation of the samples (FIGS. 7a and 8a), and after one month (FIGS. 7b and 8b), two months (FIGS. 7c and 8c), and four months (FIGS. 7d and 8d) respectively from the time of preparation, and the results were examined to observe their differences over time.

Compound | Weight gain (%) [1] [%] | hygroscopicity [1] [%] | crystalline form stability in slurry (XRPD vs original form) [2] | PK profile (Cmax, Tmax, T1/2, AUC) compared between the 3 treatments [3] | solubility at 24 h ([4]; pH 1.2, simulated gastric fluid, buffer pH1.2, 300 rpm) [µg/mL] | solubility at 24 h ([4]; pH 5, aqueous buffer, buffer pH5, 300 rpm) [µg/mL] | solubility at 24 h ([4]; pH 6.8, aqueous buffer, buffer pH6.8, 300 rpm) [µg/mL] | solubility at 24 h ([4]; pH 7.4, aqueous buffer, buffer pH7.4, 300 rpm) [µg/mL] | stability (XRPD and HPLC differences over time) [5]
O=c1[nH]c2cccccc-2c1-c1nc2ccc(N3CCN(CCCF)CC3)cc2[nH]1 [anhydrate form, 3-(5-(4-(3-fluoropropyl)piperazin-1-yl)benzimidazol-2-yl)-1-azaazulen-2-one] | 3.81 | 3.81 | – | – | – | – | – | – | –
O=c1[nH]c2cccccc-2c1-c1nc2ccc(N3CCN(CCCF)CC3)cc2[nH]1 [monohydrate form of Formula I, 3-(5-(4-(3-fluoropropyl)piperazin-1-yl)benzimidazol-2-yl)-1-azaazulen-2-one] | 1.57 | 1.57 | stable | no statistically significant difference | 26300 | 263 | 3.7 | 2.4 | stable and substantially the same over four months
